Measurements published in the NIST ThermoML archive (doi:10.1016/j.jct.2014.05.019).

Key:
[1] = 101.33 kPa, Liquid; for viscosity: Falling or rolling sphere viscometry; for mass density: Vibrating tube method
[2] = refractive index (Na D-line) (dimensionless); conditions: 101.33 kPa, Liquid, Standard Abbe refractometry
[3] = cn = amount concentration of the nth substance listed, in mol/dm3; conditions: 100 kPa, Liquid, Alternating current cell with electrodes, c1 = 0.1

O [water]
Conditions	mass density, [1] [kg/m3]	refractive index, [2]	viscosity, [1] [mPa·s]
298.15 K	–	1.33247	–
303.15 K	–	1.33188	0.798
308.15 K	–	1.33124	0.719
313.15 K	992.3	1.33053	0.654
318.15 K	990.3	1.32974	0.595
323.15 K	988.2	1.3289	0.546
328.15 K	985.9	1.32799	0.506
333.15 K	983.4	1.32704	0.466
338.15 K	980.8	1.32605	0.435
343.15 K	978	1.32503	0.408

[Cl-].[K+] [potassium chloride] + O
[3]
Conditions	electrical conductivity [S/m]
288.15 K	1.05
293.15 K	1.16
295.15 K	1.21
297.15 K	1.26
298.15 K	1.29
299.15 K	1.31
301.15 K	1.36
303.15 K	1.41
308.15 K	1.54
313.15 K	1.67
318.15 K	1.8
323.15 K	1.91
